Experimental data taken from patent US8710043B2, “TRPM8 antagonists and their use in treatments” (Amgen Inc., priority 2011, dated 2014).
Where a name gives a salt, the structure may show the parent alone.

How the values were obtained:
[1] = tested on: icilin induced wet-dog shakes; test: Inhibition of icilin induced shaking (wet-dog shakes) in rats; type: in vivo; details: Rattus norvegicus, po; dose 1 mg/kg p.o., 2 h before icilin; male Sprague Dawley rats; shakes counted for 30 min post-icilin
Method: Inhibition of Icilin Induced Shaking in Rats
Example compounds at doses ranging from 0.01 to 3 mg/kg (p.o, suspended in 5% Tween80/Oralplus or suspended in 2% HPMC-1% Tween-80 pH2.2 with MSA, 5 mL/kg) were administered to male Sprague Dawley rats (200-300 g, Harlan, n=6-8/treatment) 2 h before icilin to assess the ability to block the spontaneous wet-dog shake phenomena induced by icilin (i.p., suspended in 100% PEG400 at 0.5 mg/kg, 1 mL/kg or p.o., suspended in 2% HPMC-1% Tween-80 at 3 mg/kg, 2.5 mL/kg). Spontaneous wet-dog shakes were counted manually by two blinded observers or using LABORAS automation (Metris) for 30 min post-icilin.

[2] = target: T1, human TRPM8 (Homo sapiens, UniProt Q7Z2W7); test: Luminescence readout assay for measuring intracellular calcium, icilin activation; type: cell-based; details: CHO cells expressing human TRPM8, aequorin luminescence, 1 μM icilin activation; read-out: hTRPM8 IC50
T1 construct: expressed in transfected cells; host or cells: Chinese hamster ovary (CHO) cells, T-REx tetracycline-inducible system, co-transfected with aequorin
In short: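 The read-out was luminescence reporting intracellular calcium, recorded by a CCD-based luminometer. Compounds were preincubated for 2.5 min before agonist challenge with 1 μM icilin. Human TRPM8 was expressed in a stable T-REx CHO line, induced with 0.5 μg/mL tetracycline the day before.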

T1 sequence (Q7Z2W7 whole entry): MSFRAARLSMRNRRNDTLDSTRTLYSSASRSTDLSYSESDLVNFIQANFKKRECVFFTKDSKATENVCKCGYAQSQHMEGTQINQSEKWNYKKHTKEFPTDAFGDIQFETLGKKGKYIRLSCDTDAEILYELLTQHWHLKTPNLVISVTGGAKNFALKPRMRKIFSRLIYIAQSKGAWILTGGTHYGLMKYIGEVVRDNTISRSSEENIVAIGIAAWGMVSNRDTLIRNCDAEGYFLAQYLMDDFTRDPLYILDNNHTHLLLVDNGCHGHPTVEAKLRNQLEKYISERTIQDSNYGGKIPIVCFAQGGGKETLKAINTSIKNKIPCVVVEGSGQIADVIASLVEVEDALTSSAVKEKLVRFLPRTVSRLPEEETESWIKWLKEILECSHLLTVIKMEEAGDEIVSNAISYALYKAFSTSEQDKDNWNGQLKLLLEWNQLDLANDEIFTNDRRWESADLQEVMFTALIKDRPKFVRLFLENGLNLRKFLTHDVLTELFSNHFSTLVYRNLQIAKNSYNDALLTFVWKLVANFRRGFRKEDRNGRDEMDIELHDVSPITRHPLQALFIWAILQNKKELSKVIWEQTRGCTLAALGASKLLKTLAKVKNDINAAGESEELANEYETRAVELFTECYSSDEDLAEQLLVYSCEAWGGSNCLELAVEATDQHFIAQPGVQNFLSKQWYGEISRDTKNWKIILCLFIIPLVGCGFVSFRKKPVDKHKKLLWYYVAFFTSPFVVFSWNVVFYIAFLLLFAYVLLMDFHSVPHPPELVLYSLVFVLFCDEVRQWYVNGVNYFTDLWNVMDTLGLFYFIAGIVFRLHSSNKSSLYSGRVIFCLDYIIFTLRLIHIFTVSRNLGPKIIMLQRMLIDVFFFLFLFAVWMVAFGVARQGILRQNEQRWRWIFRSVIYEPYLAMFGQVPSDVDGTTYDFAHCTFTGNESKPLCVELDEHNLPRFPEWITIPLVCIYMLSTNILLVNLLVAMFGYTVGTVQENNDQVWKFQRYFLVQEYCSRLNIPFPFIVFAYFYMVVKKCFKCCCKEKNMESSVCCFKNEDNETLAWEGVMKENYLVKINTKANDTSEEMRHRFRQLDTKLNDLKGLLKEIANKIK

Compound: O=C(N[C@@H](c1ccc(OC(F)(F)F)c(F)c1)c1ncccc1F)c1ccc2[nH]c(=O)oc2n1 [Example 426, (S)—N-((3-fluoro-4-(trifluoromethoxy)phenyl)(3-fluoropyridin-2-yl)methyl)-2-oxo-1,2-dihydrooxazolo[5,4-b]pyridine-5-carboxamide]
- inhibition in vivo at 1 mg/kg [1]: 53%
- IC50 [2]: 9.7 nM

Compound: O=C(N[C@@H](c1ccc(OC(F)(F)F)cc1)c1ncccc1F)c1ccc2oc(=O)[nH]c2c1 [Example 79, (S)-N-((3-fluoropyridin-2-yl)(4-(trifluoromethoxy)phenyl)methyl)-2-oxo-2,3-dihydrobenzo[d]oxazole-5-carboxamide]
- inhibition in vivo at 1 mg/kg [1]: 99%
- IC50 [2]: 5.1 nM

Compound: Cn1cc(C(=O)N[C@@H](c2ccc(C(F)(F)F)cc2)c2ncccc2F)ccc1=O [Example 68, (S)-N-((3-fluoropyridin-2-yl)(4-(trifluoromethyl)phenyl)methyl)-1-methyl-6-oxo-1,6-dihydropyridine-3-carboxamide]
- inhibition in vivo at 1 mg/kg [1]: 100%
- IC50 [2]: 14.2 nM

Compound: O=C(N[C@@H](c1ccc(OC(F)(F)F)c(F)c1)c1ncccc1F)c1ccc(=O)n(CCO)c1 [Example 297, (S)-N-((3-fluoro-4-(trifluoromethoxy)phenyl)(3-fluoropyridin-2-yl)methyl)-1-(2-hydroxyethyl)-6-oxo-1,6-dihydropyridine-3-carboxamide]
- inhibition in vivo at 1 mg/kg [1]: 78%
- IC50 [2]: 16.8 nM

Compound: Cc1cc(C(=O)N[C@@H](c2ccc(C(F)(F)F)cc2)c2ncccc2F)c[nH]c1=O [Example 373, (S)-N-((3-fluoropyridin-2-yl)(4-(trifluoromethyl)phenyl)methyl)-5-methyl-6-oxo-1,6-dihydropyridine-3-carboxamide]
- inhibition in vivo at 1 mg/kg [1]: 64%
- IC50 [2]: 20.6 nM

Compound: O=C(N[C@@H](c1ccc(OC(F)(F)F)cc1)c1ccccn1)c1ccc2oc(=O)[nH]c2c1 [Example 362, (S)-2-oxo-N-(pyridin-2-yl(4-(trifluoromethoxy)phenyl)methyl)-2,3-dihydrobenzo[d]oxazole-5-carboxamide]
- inhibition in vivo at 1 mg/kg [1]: 98%
- IC50 [2]: 4.2 nM

Compound: C[C@@H](O)Cn1cc(C(=O)N[C@@H](c2ccc(OC(F)(F)F)c(F)c2)c2ncccc2F)ccc1=O [Example 299, N-((S)-(3-fluoro-4-(trifluoromethoxy)phenyl)(3-fluoropyridin-2-yl)methyl)-1-((R)-2-hydroxypropyl)-6-oxo-1,6-dihydropyridine-3-carboxamide]
- inhibition in vivo at 1 mg/kg [1]: 56%
- IC50 [2]: 17.5 nM

Compound: O=C(N[C@@H](c1ccc(C(F)(F)F)cc1)c1ncccc1F)c1ccc(=O)n(CCO)c1 [Example 370, (S)-N-((3-fluoropyridin-2-yl)(4-(trifluoromethyl)phenyl)methyl)-1-(2-hydroxyethyl)-6-oxo-1,6-dihydropyridine-3-carboxamide]
- inhibition in vivo at 1 mg/kg [1]: 50%
- IC50 [2]: 33.7 nM

Compound: O=C(N[C@@H](c1ccc(OC(F)(F)F)cc1)c1ncccc1F)c1ccc(=O)[nH]c1 [Example 1, (S)-N-((3-fluoropyridin-2-yl)(4-(trifluoromethoxy)phenyl)methyl)-6-oxo-1,6-dihydropyridine-3-carboxamide]
- inhibition in vivo at 1 mg/kg [1]: 100%
- IC50 [2]: 9.8 nM

Compound: Cc1cccnc1[C@@H](NC(=O)c1ccc(=O)n(C)c1)c1ccc(OC(F)(F)F)c(F)c1 [Example 348, (S)-N-((3-fluoro-4-(trifluoromethoxy)phenyl)(3-methylpyridin-2-yl)methyl)-1-methyl-6-oxo-1,6-dihydropyridine-3-carboxamide]
- inhibition in vivo at 1 mg/kg [1]: 51%
- IC50 [2]: 15.4 nM

Compound: O=C(N[C@@H](c1ccc(OC(F)(F)F)c(F)c1)c1ccccn1)c1ccc(=O)[nH]c1 [Example 293, (S)-N-((3-fluoro-4-(trifluoromethoxy)phenyl)(pyridin-2-yl)methyl)-6-oxo-1,6-dihydropyridine-3-carboxamide]
- inhibition in vivo at 1 mg/kg [1]: 96%
- IC50 [2]: 13.7 nM

Compound: O=C(N[C@@H](c1ccc(OC(F)(F)F)cc1)c1ccccn1)c1ccc(=O)[nH]c1 [Example 377, (S)-6-oxo-N-(pyridin-2-yl(4-(trifluoromethoxy)phenyl)methyl)-1,6-dihydropyridine-3-carboxamide]
- inhibition in vivo at 1 mg/kg [1]: 94%
- IC50 [2]: 20.7 nM

Compound: O=C(N[C@@H](c1ccc(C(F)(F)F)cc1)c1ncccc1F)c1ccc2oc(=O)[nH]c2c1 [Example 76, (S)-N-((3-fluoropyridin-2-yl)(4-(tnfluoromethyl)phenyl)methyl)-2-oxo-2,3-dihydrobenzo[d]oxazole-5-carboxamide]
- inhibition in vivo at 1 mg/kg [1]: 100%
- IC50 [2]: 4.5 nM

Compound: O=C(N[C@@H](c1ccc(OC(F)(F)F)c(F)c1)c1ccccc1F)c1ccc(=O)[nH]c1 [Example 295, (S)-N-((3-fluoro-4-(trifluoromethoxy)phenyl)(2-fluorophenyl)methyl)-6-oxo-1,6-dihydropyridine-3-carboxamide]
- inhibition in vivo at 1 mg/kg [1]: 77%
- IC50 [2]: 18 nM

Compound: O=C(N[C@@H](c1ccc(OC(F)(F)F)c(F)c1)c1ncccc1Br)c1ccc(=O)[nH]c1 [Example 382, (S)-N-((3-bromopyridin-2-yl)(3-fluoro-4-(trifluoromethoxy)phenyl)methyl)-6-oxo-1,6-dihydropyridine-3-carboxamide]
- IC50 [2]: 6.9 nM

Compound: COc1ccccc1C(=O)N[C@@H](c1ccc(C(F)(F)F)cc1)c1ncccc1C(F)(F)F [Example 176, (S)-2-methoxy-N-((4-(trifluoromethyl)phenyl)(3-(trifluoromethyl)pyridin-2-yl)methyl)benzamide]
- IC50 [2]: 21.9 nM

Compound: O=C(N[C@@H](c1ccc(OC(F)(F)F)cc1)c1ncccc1F)c1ccn2ccnc2c1 [Example 88, (S)-N-((3-fluoropyridin-2-yl)(4-(trifluoromethoxy)phenyl)methyl)imidazo[1,2-a]pyridine-7-carboxamide]
- IC50 [2]: 12.1 nM

Compound: Cn1cc(C(=O)N[C@@H](c2cc(F)cc(F)c2)c2ncccc2F)ccc1=O [Example 330, (S)-N-((3,5-difluorophenyl)(3-fluoropyridin-2-yl)methyl)-1-methyl-6-oxo-1,6-dihydropyridine-3-carboxamide]
- IC50 [2]: 2680 nM

Compound: O=C(N[C@@H](c1ccc(OC(F)(F)F)c(F)c1)c1ccc(F)cn1)c1ccc(=O)[nH]c1 [Example 292, (S)-N-((3-fluoro-4-(trifluoromethoxy)phenyl)(5-fluoropyridin-2-yl)methyl)-6-oxo-1,6-dihydropyridine-3-carboxamide]
- IC50 [2]: 52.4 nM

Compound: O=C(NC(c1ccc(Cl)c(Cl)c1)c1ccccn1)c1ccc2cnccc2c1 (stereo not shown) [Example 247, N-((3,4-dichlorophenyl)(pyridin-2-yl)methyl)isoquinoline-6-carboxamide bis-hydrochloride]
- IC50 [2]: 42.7 nM

Compound: O=C(N[C@@H](c1ccc(F)cc1)c1ncccc1F)c1ccc(=O)[nH]c1 [Example 340, (S)-N-((4-fluorophenyl)(3-fluoropyridin-2-yl)methyl)-6-oxo-1,6-dihydropyridine-3-carboxamide]
- IC50 [2]: 808 nM

Compound: O=C(N[C@@H](c1ccc(C(F)(F)F)cc1)c1ncccc1C(F)(F)F)c1cn[nH]c1 [Example 143, (S)-N-((4-(trifluoromethyl)phenyl)(3-(trifluoromethyl)pyridin-2-yl)methyl)-1H-pyrazole-4-carboxamide]
- IC50 [2]: 87.4 nM

Compound: O=C1CCc2cc(C(=O)N[C@@H](c3ccc(C(F)(F)F)cc3)c3ncccc3F)ccc2N1 [Example 318, (S)-N-((3-fluoropyridin-2-yl)(4-(trifluoromethyl)phenyl)methyl)-2-oxo-1,2,3,4-tetrahydroquinoline-6-carboxamide]
- IC50 [2]: 29.7 nM

Compound: CC#Cc1cccnc1[C@@H](NC(=O)c1ccc2ncccc2c1)c1ccc(C(F)(F)F)cc1 [Example 93, (S)-N-((3-(prop-1-yn-1-yl)pyridin-2-yl)(4-(trifluoromethyl)phenyl)methyl)quinoline-6-carboxamide]
- IC50 [2]: 17.8 nM

Compound: COc1cccnc1[C@@H](NC(=O)c1ccc2cccnc2c1)c1ccc(C(F)(F)F)cc1 [Example 28, (S)-N-((3-methoxypyridin-2-yl)(4-(trifluoromethyl)phenyl)methyl)quinoline-7-carboxamide]
- IC50 [2]: 194 nM

Compound: Cc1cccnc1[C@@H](NC(=O)c1ccc2oc(=O)[nH]c2c1)c1ccc(OC(F)(F)F)c(F)c1 [Example 358, (S)-N-((3-fluoro-4-(trifluoromethoxy)phenyl)(3-methylpyridin-2-yl)methyl)-2-oxo-2,3-dihydrobenzo[d]oxazole-5-carboxamide]
- IC50 [2]: 14.1 nM

Compound: O=C(N[C@@H](c1ccc(C(F)(F)F)cc1)c1ncccc1F)c1n[nH]c2c1CCC2 [Example 321, (S)-N-((3-fluoropyridin-2-yl)(4-(trifluoromethyl)phenyl)methyl)-1,4,5,6-tetrahydrocyclopenta[c]pyrazole-3-carboxamide]
- IC50 [2]: 164 nM

Compound: O=C(N[C@@H](c1ccc(C(F)(F)F)cc1)c1ccccn1)c1ccc2c(c1)NCCC2 [Example 276, (S)—N-(Pyridin-2-yl(4-(trifluoromethyl)phenyl)methyl)-1,2,3,4-tetrahydroquinoline-7-carboxamide]
- IC50 [2]: 177 nM

Compound: O=C(N[C@@H](c1ccc(C(F)(F)F)cc1)c1ncccc1C(F)(F)F)c1ccc2c(c1)CNC2=O [Example 271, (S)-1-Oxo-N-((4-(trifluoromethyl)phenyl)(3-(trifluoromethyl)-pyridin-2-yl)methyl)isoindoline-5-carboxamide]
- IC50 [2]: 8.9 nM
